What was measured:
[1] = pharmacokinetics and tissue levels after 30 mg/kg bolus IV, IP, SC and PO in mice; type: in vivo, female Crl: CD1 mice
Description: The compound of formula I was dissolved in ethanol (5%), Polysorbate 80 (15%), PEG 400 (5%) and dextrose (5%) at a final concentration of 6 mg/ml (IV, IP and SC administration). For oral administration, the compound of Formula I was solubilized in Chremophor® EL/Ethanol (50%:50%) at a final concentration of 6 mg/ml. Prior to dosing, animals (female Crl: CD1 mice; 6 weeks of age, 22-24 g) were weighed, randomly selected and assigned to the different treatment groups. The compound of Formula I was administered by the bolus intravenous (IV), bolus subcutaneous (SC), bolus intraperitoneal (IP), or oral (PO) route to the assigned animals. The dosing volume of Formula I was 5 mL per kg body weight. Animals were anesthetized prior to bleeding with 5% isoflurane. Blood was collected into microtainer tubes containing the anticoagulant K2EDTA by cardiac puncture from each of 4 animals per bleeding timepoint (2 min, 5 min, 15 min, 30 min, 1 h, 2 h, 4 h and 8 h). Following collection, the samples were centrifuged and the plasma obtained from each sample was recovered and stored frozen (at approximately −80° C.) pending analysis. At the 5 min and 30 min time points, the following organs were harvested from each animal: brain, lungs, skeletal muscle, fat tissue, kidneys, spleen, thymus and liver. Tissues were frozen (at approximately −80° C.) pending analysis. Samples were analysed by LC/MS/MS.
Plasma values of the compound of Formula I falling below the limit of quantitation (LOQ) were set to zero. […] The following pharmacokinetic parameters were calculated: area under the plasma concentration versus time curve from time zero to the last measurable concentration time point (AUCO-t), area under the plasma concentration versus time curve extrapolated to infinity (AUCinf), maximum observed plasma concentration (Cmax), time of maximum plasma concentration (tmax), apparent first-order terminal elimination rate constant (kel), apparent first-order terminal elimination half-life will be calculated as 0.693/kel (t1/2). The systemic clearance (CL) of the compound of Formula I after intravenous administration was calculated using Dose/AUCinf. Pharmacokinetic parameters were calculated using Kinetica™ 4.1.1 (InnaPhase Corporation, Philadelphia, Pa.).

[2] = maximum tolerated dose and tolerability of bolus administration in mice; type: in vivo
[3] = pharmacokinetics of 14-day CIV infusion in rats; type: in vivo, Sprague-Dawley rats; conditions: calculated at the end of treatment
Description: (§1) Sprague-Dawley rats received an intravenous continuous infusion over 14 days of Formula I at 25 mg/kg/day, 50 mg/kg/day, or 75 mg/kg/day at a rate of 2 mL/kg/h for 14 consecutive days (same formulation as in Example 7). Blood was collected from the jugular vein in tubes containing K2 EDTA from 3 rats/sex/group at the following time points: 2, 6, and 12 hours after the start of dosing on Day 1, on Day 2 at 6 hours (approximately 30 hours after the start of dosing), on Days 6 and 10 at 6 hours, and on Day 15, 1 hour prior the end of dosing, and then at 5 min, 15 min, 30 min, 1 h, and 2 h after the end of dosing.

[4] = pharmacokinetics of 14-day CIV infusion in monkeys; type: in vivo, Cynomolgus monkeys; conditions: for T1/2z: calculated at the end of treatment, mean
Description: (§2) Cynomolgus monkeys received continuous IV infusion over 14 days of Formula I at 5 mg/kg/day, 15 mg/kg/day, or 30 mg/kg/day. The drug was infused intravenously (24 hours/day) into the femoral vein at a dose rate of 2 ml/kg/hour for 14 consecutive days. Blood samples were removed from each monkey on Days 1, 2, 6, 10, and 15 of the treatment period. Monkeys were bled by venipuncture and samples were collected into tubes containing K2EDTA. On Day 1, samples were collected at 2, 6, and 12 hours after initiation of treatment. Additional samples were collected at 30 hours after the start of infusion (Day 2). On Days 6 and 10, samples were collected at approximately 6 hours after the bag changes. At the end of the 14 days of infusion, on Day 15, samples were collected at 1 hour prior to cessation of dose administration, and at 5 min, 30 min, 1 h, 2 h, 4 h, 8 h, and 24 h following cessation of dose administration.

[5] = toxicity of 14-day continuous intravenous infusion in monkeys; type: in vivo; conditions: 14-day CIV
Description: as §2

[6] = toxicity of 14-day infusion in rats; type: in vivo; conditions: all treated and control groups, attributed to the vehicle
Description: as §1
The toxicity was due to the vehicle and was attributed to smaller size of infusion vessels, and concurrent catheter tract infection.

[7] = acute toxicity, 24-hour CIV administration in monkeys; type: in vivo
[8] = population pharmacokinetic analysis, rat (IV + CIV); type: in vivo; conditions: population PK
Description: (§3) An analysis was performed to derive allometric equations for Formula I pharmacokinetic parameters using Formula I plasma concentration-time data from three species, including mouse, rat, and monkey, and to estimate human pharmacokinetic parameters from those allometric equations.
(§4) Plasma concentrations of Formula I were obtained from mice, rats, and monkeys following intravenous injection or continuous infusion. Formula I pharmacokinetic parameters in mice, rats, and monkeys were estimated using population pharmacokinetic analysis, a function of the software program NONMEM™ (version 5). Typical population pharmacokinetic parameters for Formula I in humans were extrapolated from allometric equations that were derived from pharmacokinetic parameters estimated in the three animal species.
A two-compartment model with a first-order elimination from the central compartment adequately described Formula I plasma concentration-time profiles following intravenous bolus injection (30 mg/kg) in mice and rats, 7-day continuous infusion in rats (50 to 170 mg/kg/day), and 14-day continuous infusion in monkeys (5 to 30 mg/kg/day).

[9] = human pharmacokinetic parameters extrapolated from allometric equations; conditions: estimated from allometric equations
Description: as §3, §4
Allometric equations for the pharmacokinetic parameters clearance (CL), volume of distribution (V1 and V2), and inter-compartmental clearance (Q) were derived. The population PK parameters of the compound of Formula I for humans were extrapolated from the allometric equations, and the estimated values are shown in Table 6. Simulated Formula I plasma concentration-time profiles in humans are shown in FIG. 13 and estimated end of infusion concentrations are provided in Table 7.

CC(C)=CCC/C(C)=C/CC/C(C)=C/CN1C(=O)c2cccc(O)c2Nc2c(O)cc(O)cc21 [Formula I, 10-farnesyl-4,6,8-trihydroxy-dibenzodiazepin-11-one]
peak plasma concentration ([1]; IP bolus 30 mg/kg): 7.8 µM
time to peak plasma concentration ([1]; IP bolus 30 mg/kg): 15 min
tissue distribution ([1]; IV and IP bolus 30 mg/kg, 30 min time point): well distributed
drug levels after oral administration ([1]; PO 30 mg/kg): moderate but sustained drug levels
peak plasma concentration ([1]; SC bolus 30 mg/kg): 2.3 µM
time to peak plasma concentration ([1]; SC bolus 30 mg/kg): 60 min
tissue levels compared with IP ([1]; SC bolus 30 mg/kg, 30 min time point): significantly lower
t1/2,α ([1]; bolus IV 30 mg/kg, plasma, mice, 30 mg/kg): 4.7 min
plasma concentration, initial ([1]; bolus IV 30 mg/kg, start of decline): ~425 µM
time plasma concentration is maintained at therapeutically relevant levels ([1]; intraperitoneal and subcutaneous bolus 30 mg/kg, mice): over 8 hours
tolerability finding ([2]; IP bolus dosing): some intestinal occlusion
tolerability finding ([2]; SC bolus dosing): swelling and thickening of the skin
T1/2z ([3]; CIV 25 mg/kg/day): 1.6 h
T1/2z ([3]; CIV 50 mg/kg/day): 1.2 h
T1/2z ([3]; CIV 75 mg/kg/day): 1.2 h
fold increase in AUC between groups ([4]; 15 mg/kg/day versus 5 mg/kg/day): 3.4 fold
fold increase in AUC between groups ([4]; 30 mg/kg/day versus 15 mg/kg/day): 4.7 fold
T1/2z ([4]; CIV 5 mg/kg/day): 12 h
T1/2z ([4]; CIV 15 mg/kg/day): 8.3 h
T1/2z ([4]; CIV 30 mg/kg/day): 8.1 h
concentration at 14 days ([4]; cynomolgus monkey, plasma, 14-day IV continuous infusion, read-out: stable plasma concentrations above the therapeutic threshold): > 2 µM
degenerative changes in organs, including the infusion site [5]: No degenerative changes
effect on body weight, ocular condition, electrocardiographic activity and other parameters [5]: no effect
side effects [5]: inappetance and a moderate degree of regenerative anemia, were reversible
compound associated toxicity ([5]; 5 to 30 mg/kg/day): no severe compound associated toxicity
findings at the site of infusion [6]: necrotization and inflammatory lesions at the site of infusion
tolerability ([7]; 35 mg/kg): well tolerated
tolerability ([7]; 70 mg/kg): well tolerated
Ke [8]: 8.651 h⁻¹
Ke [9]: 1.192 h⁻¹
Q [9]: 0.533 mL/min/kg
t1/2,α [9]: 0.509 h
t1/2,β [9]: 13.8 h
